Measurements as given in PubChem BioAssay (NCI).
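Here, GI50 denotes the concentration required for 50% inhibition of growth. TGI is the concentration that stops growth completely.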

Assays:
Assay in all cases: NCI-60 cell line screen, 384-well format
786-0 renal = system: 786-0 renal
A498 renal = system: A498 renal
A549 NSCLC = system: A549 NSCLC
ACHN renal = system: ACHN renal
BT-549 breast = system: BT-549 breast
CAKI-1 renal = system: CAKI-1 renal
COLO 205 colon = system: COLO 205 colon
DU-145 prostate = system: DU-145 prostate
EKVX NSCLC = system: EKVX NSCLC
HCT-116 colon = system: HCT-116 colon
HCT-15 colon = system: HCT-15 colon
HL-60(TB) leukemia = system: HL-60(TB) leukemia
HOP-62 NSCLC = system: HOP-62 NSCLC
HOP-92 NSCLC = system: HOP-92 NSCLC
HS 578T breast = system: HS 578T breast
HT29 colon = system: HT29 colon
IGROV1 ovarian = system: IGROV1 ovarian
K-562 leukemia = system: K-562 leukemia
KM12 colon = system: KM12 colon
M14 melanoma = system: M14 melanoma
MALME-3M melanoma = system: MALME-3M melanoma
MCF7 breast = system: MCF7 breast
MDA-MB-231 breast = system: MDA-MB-231 breast
MDA-MB-435 melanoma = system: MDA-MB-435 melanoma
MDA-MB-468 breast = system: MDA-MB-468 breast
MOLT-4 leukemia = system: MOLT-4 leukemia
NCI-H226 lung = system: NCI-H226 lung
NCI-H23 lung = system: NCI-H23 lung
NCI-H322M lung = system: NCI-H322M lung
NCI-H460 NSCLC = system: NCI-H460 NSCLC
NCI-H522 lung = system: NCI-H522 lung
OVCAR-3 ovarian = system: OVCAR-3 ovarian
OVCAR-4 ovarian = system: OVCAR-4 ovarian
OVCAR-5 ovarian = system: OVCAR-5 ovarian
OVCAR-8 ovarian = system: OVCAR-8 ovarian
PC-3 prostate = system: PC-3 prostate
RXF 393 renal = system: RXF 393 renal
SF-268 CNS = system: SF-268 CNS
SF-295 CNS = system: SF-295 CNS
SF-539 CNS = system: SF-539 CNS
SK-MEL-2 melanoma = system: SK-MEL-2 melanoma
SK-MEL-28 melanoma = system: SK-MEL-28 melanoma
SK-MEL-5 melanoma = system: SK-MEL-5 melanoma
SK-OV-3 ovarian = system: SK-OV-3 ovarian
SN12C renal = system: SN12C renal
SNB-19 CNS = system: SNB-19 CNS
SNB-75 CNS = system: SNB-75 CNS
SR leukemia = system: SR leukemia
SW-620 colon = system: SW-620 colon
T-47D breast = system: T-47D breast
TK-10 renal = system: TK-10 renal
UACC-257 melanoma = system: UACC-257 melanoma
UACC-62 melanoma = system: UACC-62 melanoma
UO-31 renal = system: UO-31 renal

CN(C)C1CCN(C(=O)c2ccc(NC(=O)Nc3ccc(-c4nc(N5CCOCC5)nc(N5CCOCC5)n4)cc3)cc2)CC1
GI50 ([…]-0 renal): 290 nM | TGI (786-0 renal): 2030 nM | GI50 (A498 renal): 188 nM | TGI (A498 renal): 943 nM | GI50 (A549 NSCLC): 22.3 nM | TGI (A549 NSCLC): 546 nM | GI50 (ACHN renal): 479 nM | TGI (ACHN renal): 5560 nM | GI50 (BT-549 breast): 17.6 nM | TGI (BT-549 breast): 130 nM | GI50 (CAKI-1 renal): 278 nM | TGI (CAKI-1 renal): 1230 nM | GI50 (COLO 205 colon): 26.7 nM | TGI (COLO 205 colon): 137 nM | GI50 (DU-145 prostate): 15 nM | TGI (DU-145 prostate): 1580 nM | GI50 (EKVX NSCLC): 40.6 nM | TGI (EKVX NSCLC): 828 nM | GI50 (HCT-116 colon): 31.9 nM | TGI (HCT-116 colon): 1970 nM | GI50 (HCT-15 colon): 3260 nM | TGI (HCT-15 colon): > 100000 nM | GI50 (HL-60(TB) leukemia): 55.4 nM | TGI (HL-60(TB) leukemia): 227 nM | GI50 (HOP-62 NSCLC): 52.1 nM | TGI (HOP-62 NSCLC): 351 nM | GI50 (HOP-92 NSCLC): 21.1 nM | TGI (HOP-92 NSCLC): 118 nM | GI50 (HS 578T breast): < 10 nM | TGI (HS 578T breast): 45.5 nM | GI50 (HT29 colon): 28.6 nM | TGI (HT29 colon): 1470 nM | GI50 (IGROV1 ovarian): < 10 nM | TGI (IGROV1 ovarian): 43.1 nM | GI50 (K-562 leukemia): 42.2 nM | TGI (K-562 leukemia): 1820 nM | GI50 (KM12 colon): 27.7 nM | TGI (KM12 colon): 10300 nM | GI50 (M14 melanoma): 128 nM | TGI (M14 melanoma): 5250 nM | GI50 (MALME-3M melanoma): 18.9 nM | TGI (MALME-3M melanoma): 73.5 nM | GI50 (MCF7 breast): < 10 nM | TGI (MCF7 breast): 176 nM | GI50 (MDA-MB-231 breast): 11.7 nM | TGI (MDA-MB-231 breast): 15000 nM | GI50 (MDA-MB-435 melanoma): 23.5 nM | TGI (MDA-MB-435 melanoma): 352 nM | GI50 (MDA-MB-468 breast): < 10 nM | TGI (MDA-MB-468 breast): 22.4 nM | GI50 (MOLT-4 leukemia): 10.7 nM | TGI (MOLT-4 leukemia): 45.4 nM | GI50 (NCI-H226 lung): 86.5 nM | TGI (NCI-H226 lung): 441 nM | GI50 (NCI-H23 lung): 50.8 nM | TGI (NCI-H23 lung): 1120 nM | GI50 (NCI-H322M lung): 19.5 nM | TGI (NCI-H322M lung): 149 nM | GI50 (NCI-H460 NSCLC): 18.6 nM | TGI (NCI-H460 NSCLC): 1340 nM | GI50 (NCI-H522 lung): 24.4 nM | TGI (NCI-H522 lung): 1610 nM | GI50 (OVCAR-3 ovarian): 12.1 nM | TGI (OVCAR-3 ovarian): 323 nM | GI50 (OVCAR-4 ovarian): < 10 nM | TGI (OVCAR-4 ovarian): 50.9 nM | GI50 (OVCAR-5 ovarian): 50.9 nM | TGI (OVCAR-5 ovarian): 12100 nM | GI50 (OVCAR-8 ovarian): 139 nM | TGI (OVCAR-8 ovarian): 2940 nM | GI50 (PC-3 prostate): 18.8 nM | TGI (PC-3 prostate): 765 nM | GI50 (RXF 393 renal): 25.2 nM | TGI (RXF 393 renal): 203 nM | GI50 (SF-268 CNS): 36.3 nM | TGI (SF-268 CNS): 1760 nM | GI50 (SF-295 CNS): 174 nM | TGI (SF-295 CNS): 607 nM | GI50 (SF-539 CNS): < 10 nM | TGI (SF-539 CNS): 113 nM | GI50 (SK-MEL-2 melanoma): 37.3 nM | TGI (SK-MEL-2 melanoma): 268 nM | GI50 (SK-MEL-28 melanoma): 42.8 nM | TGI (SK-MEL-28 melanoma): 1150 nM | GI50 (SK-MEL-5 melanoma): 125 nM | TGI (SK-MEL-5 melanoma): 390 nM | GI50 (SK-OV-3 ovarian): < 10 nM | TGI (SK-OV-3 ovarian): 39.8 nM | GI50 (SN12C renal): 30.3 nM | TGI (SN12C renal): 12400 nM | GI50 (SNB-19 CNS): 383 nM | TGI (SNB-19 CNS): 14400 nM | GI50 (SNB-75 CNS): < 10 nM | TGI (SNB-75 CNS): 33.9 nM | GI50 (SR leukemia): < 10 nM | TGI (SR leukemia): 26.4 nM | GI50 (SW-620 colon): 75.2 nM | TGI (SW-620 colon): 10200 nM | GI50 (T-47D breast): < 10 nM | TGI (T-47D breast): 11.4 nM | GI50 (TK-10 renal): 348 nM | TGI (TK-10 renal): 1690 nM | GI50 (UACC-257 melanoma): 51.9 nM | TGI (UACC-257 melanoma): 338 nM | GI50 (UACC-62 melanoma): 24.9 nM | TGI (UACC-62 melanoma): 142 nM | GI50 (UO-31 renal): 2220 nM | TGI (UO-31 renal): 7290 nM
